Results reported in US8722678B2 (priority 2010, dated 2014).
Like-named read-outs stand apart in the source and are kept apart here.

Columns and labels:
Plasmopara viticola = conditions: in vivo
Phytophthora infestans [1] = test: whole plant or invertebrate; type: in vivo; conditions: for Test B rating (100 = 100% disease control, 0 = no disease control relative to the controls): in vivo
Phytophthora infestans [2] = type: in vivo
[3] = tomato seedlings, sprayed to run-off 17 h after inoculation, application rate not given for unstarred values (40 ppm suspension mentioned)

Compound	Test A rating (100 = 100% disease control, 0 = no disease control relative to the controls) (Plasmopara viticola)	Test B rating (100 = 100% disease control, 0 = no disease control relative to the controls) (Phytophthora infestans [1])	Test C rating (100 = 100% disease control, 0 = no disease control relative to the controls) (Phytophthora infestans [2]; in vivo)	Test C rating (100 = 100% disease control, 0 = no disease control relative to the controls) (Phytophthora infestans [2]; [3])	pest or weed control at 200 ppm (Phytophthora infestans [1]; Phytophthora infestans, in Solanum lycopersicum, read-out: Test B rating (100 = 100% disease control, 0 = no disease control relative to the controls))
1-[4-[4-[(hydroxyimino)phenylmethyl]-2-thiazolyl]-1-piperidinyl-2-[5-methyl-3-(trifluoromethyl)-1H-pyrazol-1-yl]ethanone [Compound 15]	55%	100%	–	–	–
1-[4-[4-[(hydroxyimino)phenylmethyl]-2-thiazolyl]-1-piperidinyl-2-[5-methyl-3-(trifluoromethyl)-1H-pyrazol-1-yl]ethanone [Compound 16]	0%	89%	0%	–	–
Cc1cc(C(F)(F)F)nn1CC(=O)N1CCC(c2nc(C=NO)cs2)CC1 [Compound 8, 4-[4-[(hydroxyimino)methyl]-2-thiazolyl]-1-[[5-methyl-3-(trifluoromethyl)-1H-pyrazol-1-yl]acetyl]piperidine]	99%	–	–	97%	–
CC(=NO)c1csc(C2CCN(C(=O)Cn3nc(C(F)(F)F)cc3C)CC2)n1 [Compound 10, 1-[4-[4-[1-(hydroxyimino)ethyl)-2-thiazolyl]-1-piperidinyl]-2-[5-methyl-3-(trifluoromethyl)-1H-pyrazol-1-yl]ethanone]	71%	–	–	–	–
Cc1cc(C(F)(F)F)nn1CC(=O)N1CCC(c2nc(C(C=Cc3c(F)cccc3F)=NO)cs2)CC1 [Compound 11, 3-(2,6-difluorophenyl)-1-[2-[1-[2-[5-methyl-3-(trifluoromethyl)-1H-pyrazol-1-yl]acetyl]-4-piperidinyl]-4-thiazolyl]-2-propen-1-one 1-oxime]	100%	–	–	98%	–
Cc1cc(C(F)(F)F)nn1CC(=O)N1CCC(c2nc(C(CC(O[Si](C)(C)C(C)(C)C)c3c(F)cccc3F)=NO)cs2)CC1 (stereo not drawn) [Compound 12, 3-(2,6-difluorophenyl)-3-[[(1,1-dimethylethyl)dimethylsilyl]oxy]-1-[2-[1-[2-[5-methyl-3-(trifluoromethyl)-1H-pyrazol-1-yl]acetyl]-4-piperidinyl]-4-thiazolyl]-1-propanone 1-oxime]	0%	–	–	–	40%
Cc1cc(C(F)(F)F)nn1CC(=O)N1CCC(c2nc(C(CC(O)c3c(F)cccc3F)=NO)cs2)CC1 (stereo not drawn) [Compound 13, 3-(2,6-difluorophenyl)-3-hydroxy-1-[2-[1-[2-[5-methyl-3-(trifluoromethyl)-1H-pyrazol-1-yl]acetyl]-4-piperidinyl]-4-thiazolyl]-1-propanone 1-oxime]	93%	–	–	97%	–
CCOC(=O)/C(=N\O)c1csc(C2CCN(C(=O)Cn3nc(C(F)(F)F)cc3C)CC2)n1 [Compound 14]	0%	–	–	9%	–
CON=C(C=Cc1c(F)cccc1F)c1csc(C2CCN(C(=O)Cn3nc(C(F)(F)F)cc3C)CC2)n1 [Compound 19, 3-(2,6-difluorophenyl)-1-[2-[1-[2-[5-methyl-3-(trifluoromethyl)-1H-pyrazol-1-yl]acetyl]-4-piperidinyl]-4-thiazolyl]-2-propen-1-one 1-(O-methyloxime)]	83%	–	–	–	–
Cc1cc(C(F)(F)F)nn1CC(=O)N1CCC(c2nc(C(CCc3c(F)cccc3F)=NO)cs2)CC1 [Compound 21, 3-(2,6-difluorophenyl)-1-[2-[1-[2-[5-methyl-3-(trifluoromethyl)-1H-pyrazol-1-yl]acetyl]-4-piperidinyl]-4-thiazolyl]-1-propanone 1-oxime]	57%	–	–	–	–
Cc1cc(C(F)(F)F)nn1CC(=O)N1CCC(c2nc(C=NOC(C)c3ccccc3)cs2)CC1 (stereo not drawn) [Compound 22, 2-[1-[2-[5-methyl-3-(trifluoromethyl)-1H-pyrazol-1-yl]acetyl]-4-piperidinyl]-4-thiazolecarboxaldehyde 4-[O-(1-phenylethyl)oxime]]	97%	–	–	–	–
CC(=O)ON=C(C=Cc1c(F)cccc1F)c1csc(C2CCN(C(=O)Cn3nc(C(F)(F)F)cc3C)CC2)n1 [Compound 23, 3-(2,6-difluorophenyl)-1-[2-[1-[2-[5-methyl-3-(trifluoromethyl)-1H-pyrazol-1-yl]acetyl]-4-piperidinyl]-4-thiazolyl]-2-propen-1-one 1-(O-acetyloxime)]	99%	–	–	99%	–
